Assay results from PubChem BioAssay (NCI).
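Test compounds were applied to cells in 96-well plates for 48 hours at 5 doses. The concentration for 50% growth inhibition is given as GI50. TGI: concentration producing complete growth inhibition.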

Legend:
Assay in all cases: NCI tumour cell line growth inhibition, 48 h; in the data active = GI50 below about 0.43 µM; inactive = the rest
MALME-3M melanoma = test system: MALME-3M melanoma
A498 renal = test system: A498 renal
OVCAR-8 ovarian = test system: OVCAR-8 ovarian
SNB-75 CNS = test system: SNB-75 CNS
SR leukemia = test system: SR leukemia
SN12C renal = test system: SN12C renal
NCI-H460 lung = test system: NCI-H460 lung
RPMI-8226 leukemia = test system: RPMI-8226 leukemia
HCT-116 colon = test system: HCT-116 colon
SF-268 CNS = test system: SF-268 CNS
HL-60(TB) leukemia = test system: HL-60(TB) leukemia
CAKI-1 renal = test system: CAKI-1 renal
LOX IMVI melanoma = test system: LOX IMVI melanoma
M14 melanoma = test system: M14 melanoma
HCT-15 colon = test system: HCT-15 colon
BT-549 breast = test system: BT-549 breast
OVCAR-5 ovarian = test system: OVCAR-5 ovarian
K-562 leukemia = test system: K-562 leukemia
786-0 renal = test system: 786-0 renal
A549 NSCLC = test system: A549 NSCLC
UACC-62 melanoma = test system: UACC-62 melanoma
U251 CNS = test system: U251 CNS
SNB-19 CNS = test system: SNB-19 CNS
NCI-H522 lung = test system: NCI-H522 lung
TK-10 renal = test system: TK-10 renal
SW-620 colon = test system: SW-620 colon
HS 578T breast = test system: HS 578T breast
MDA-MB-435 = test system: MDA-MB-435
SK-MEL-28 melanoma = test system: SK-MEL-28 melanoma
NCI-H226 lung = test system: NCI-H226 lung
ACHN renal = test system: ACHN renal
HOP-62 NSCLC = test system: HOP-62 NSCLC
HOP-92 NSCLC = test system: HOP-92 NSCLC
CCRF-CEM leukemia = test system: CCRF-CEM leukemia
COLO 205 colon = test system: COLO 205 colon
NCI-H23 lung = test system: NCI-H23 lung
SF-539 CNS = test system: SF-539 CNS
MDA-MB-231 breast = test system: MDA-MB-231 breast
KM12 colon = test system: KM12 colon
IGROV1 ovarian = test system: IGROV1 ovarian
SK-MEL-5 melanoma = test system: SK-MEL-5 melanoma
RXF 393 renal = test system: RXF 393 renal
OVCAR-4 ovarian = test system: OVCAR-4 ovarian
NCI/ADR-RES ovarian = test system: NCI/ADR-RES ovarian
MCF7 breast = test system: MCF7 breast
SF-295 CNS = test system: SF-295 CNS
SK-MEL-2 melanoma = test system: SK-MEL-2 melanoma
HCC-2998 colon = test system: HCC-2998 colon
PC-3 prostate = test system: PC-3 prostate
MOLT-4 leukemia = test system: MOLT-4 leukemia
UO-31 renal = test system: UO-31 renal
EKVX NSCLC = test system: EKVX NSCLC
DU-145 prostate = test system: DU-145 prostate
SK-OV-3 ovarian = test system: SK-OV-3 ovarian
UACC-257 melanoma = test system: UACC-257 melanoma
OVCAR-3 ovarian = test system: OVCAR-3 ovarian
T-47D breast = test system: T-47D breast

O=c1ncc(I)c[nH]1
> 100 µM: TGI (MALME-3M melanoma) | TGI (A498 renal) | TGI (OVCAR-8 ovarian) | TGI (SNB-75 CNS) | TGI (SR leukemia) | TGI (SN12C renal) | TGI (NCI-H460 lung) | TGI (RPMI-8226 leukemia) | TGI (HCT-116 colon) | TGI (SF-268 CNS) | TGI (HL-60(TB) leukemia) | TGI (CAKI-1 renal) | TGI (LOX IMVI melanoma) | TGI (M14 melanoma) | TGI (HCT-15 colon) | TGI (BT-549 breast) | TGI (OVCAR-5 ovarian) | TGI (K-562 leukemia) | TGI (786-0 renal) | TGI (A549 NSCLC) | TGI (UACC-62 melanoma) | TGI (U251 CNS) | TGI (SNB-19 CNS) | TGI (NCI-H522 lung) | TGI (TK-10 renal) | TGI (SW-620 colon) | TGI (HS 578T breast) | TGI (MDA-MB-435) | TGI (SK-MEL-28 melanoma) | TGI (NCI-H226 lung) | TGI (ACHN renal) | TGI (HOP-62 NSCLC) | TGI (HOP-92 NSCLC) | TGI (CCRF-CEM leukemia) | TGI (COLO 205 colon) | TGI (NCI-H23 lung) | TGI (SF-539 CNS) | TGI (MDA-MB-231 breast) | TGI (KM12 colon) | TGI (IGROV1 ovarian) | TGI (SK-MEL-5 melanoma) | TGI (RXF 393 renal) | TGI (OVCAR-4 ovarian) | TGI (NCI/ADR-RES ovarian) | TGI (MCF7 breast) | TGI (SF-295 CNS) | TGI (SK-MEL-2 melanoma) | TGI (HCC-2998 colon) | TGI (PC-3 prostate) | TGI (MOLT-4 leukemia) | TGI (UO-31 renal) | TGI (EKVX NSCLC) | TGI (DU-145 prostate) | TGI (SK-OV-3 ovarian) | TGI (UACC-257 melanoma) | TGI (OVCAR-3 ovarian) | TGI (T-47D breast)
inactive: GI50 (MALME-3M melanoma) > 100 µM | GI50 (A498 renal) > 100 µM | GI50 (OVCAR-8 ovarian) > 100 µM | GI50 (SNB-75 CNS) > 100 µM | GI50 (SR leukemia) > 100 µM | GI50 (SN12C renal) > 100 µM | GI50 (NCI-H460 lung) > 100 µM | GI50 (RPMI-8226 leukemia) > 100 µM | GI50 (HCT-116 colon) > 100 µM | GI50 (SF-268 CNS) > 100 µM | GI50 (HL-60(TB) leukemia) > 100 µM | GI50 (CAKI-1 renal) > 100 µM | GI50 (LOX IMVI melanoma) > 100 µM | GI50 (M14 melanoma) > 100 µM | GI50 (HCT-15 colon) > 100 µM | GI50 (BT-549 breast) > 100 µM | GI50 (OVCAR-5 ovarian) > 100 µM | GI50 (K-562 leukemia) > 100 µM | GI50 (786-0 renal) > 100 µM | GI50 (A549 NSCLC) > 100 µM | GI50 (UACC-62 melanoma) > 100 µM | GI50 (U251 CNS) > 100 µM | GI50 (SNB-19 CNS) > 100 µM | GI50 (NCI-H522 lung) > 100 µM | GI50 (TK-10 renal) > 100 µM | GI50 (SW-620 colon) > 100 µM | GI50 (HS 578T breast) > 100 µM | GI50 (MDA-MB-435) > 100 µM | GI50 (SK-MEL-28 melanoma) > 100 µM | GI50 (NCI-H226 lung) > 100 µM | GI50 (ACHN renal) > 100 µM | GI50 (HOP-62 NSCLC) > 100 µM | GI50 (HOP-92 NSCLC) > 100 µM | GI50 (CCRF-CEM leukemia) > 100 µM | GI50 (COLO 205 colon) > 100 µM | GI50 (NCI-H23 lung) > 100 µM | GI50 (SF-539 CNS) > 100 µM | GI50 (MDA-MB-231 breast) > 100 µM | GI50 (KM12 colon) > 100 µM | GI50 (IGROV1 ovarian) > 100 µM | GI50 (SK-MEL-5 melanoma) > 100 µM | GI50 (RXF 393 renal) > 100 µM | GI50 (OVCAR-4 ovarian) > 100 µM | GI50 (NCI/ADR-RES ovarian) > 100 µM | GI50 (MCF7 breast) > 100 µM | GI50 (SF-295 CNS) > 100 µM | GI50 (SK-MEL-2 melanoma) > 100 µM | GI50 (HCC-2998 colon) > 100 µM | GI50 (PC-3 prostate) > 100 µM | GI50 (MOLT-4 leukemia) > 100 µM | GI50 (UO-31 renal) > 100 µM | GI50 (EKVX NSCLC) > 100 µM | GI50 (DU-145 prostate) > 100 µM | GI50 (SK-OV-3 ovarian) > 100 µM | GI50 (UACC-257 melanoma) > 100 µM | GI50 (OVCAR-3 ovarian) > 100 µM | GI50 (T-47D breast) > 100 µM
